Calls of active or inactive are those of the source. The calls are words filed in the database; no cut-off is given here.
Columns and labels:
[1] = system: Infectious hematopoietic necrosis virus; experiment: Antiviral activity against IHNV infected in EPC cells (unknown origin) assessed as cristae of varying lengths with attached granules in inner membrane of mitochondria by TEM analysis; assay type: functional, organism-based
[2] = system: Infectious hematopoietic necrosis virus; experiment: Antiviral activity against IHNV infected in juvenile rainbow trout assessed as increase in Mx1 gene expression in spleen administered intraperitoneally measured after 2 days by RT-qPCR analysis; assay type: functional, organism-based; conditions: route ip, time 2.0 day
[3] = system: Infectious hematopoietic necrosis virus; experiment: Antiviral activity against IHNV infected in EPC cells (unknown origin) assessed as reversal of chromatin condensation at 25 uM measured after 72 hrs by fluorescence microscopy; assay type: functional, organism-based
[4] = system: Infectious hematopoietic necrosis virus; experiment: Antiviral activity against IHNV infected in EPC cells (unknown origin) assessed as smooth outer membrane in mitochondria by TEM analysis; assay type: functional, organism-based
[5] = system: Infectious hematopoietic necrosis virus; experiment: Antiviral activity against IHNV infected in juvenile rainbow trout assessed as decrease in viral titer in recipient fishes on horizontal transmission between virus-infected donor fishes and non-infected recipient fishes at 25 uM immersed together in compound for 48 hrs; assay type: functional, organism-based
[6] = system: Infectious hematopoietic necrosis virus; experiment: Antiviral activity against IHNV infected in EPC cells (unknown origin) assessed as inhibition of viral infection at 4 to 25 uM measured after 72 hrs by RT-qPCR analysis; assay type: functional, organism-based; conditions: dose 4-25 µM
[7] = system: Infectious hematopoietic necrosis virus; experiment: Antiviral activity against IHNV infected in EPC cells (unknown origin) assessed as inhibition of viral M gene expression at 25 uM measured after 72 hrs by RT-qPCR analysis relative to control; assay type: functional
[8] = system: Infectious hematopoietic necrosis virus; experiment: Antiviral activity against IHNV infected in juvenile rainbow trout assessed as decrease in erythrocytes in spleen administered intraperitoneally measured after 2 days by H and E staining based analysis; assay type: functional, organism-based; conditions: route ip, time 2.0 day
[9] = system: Infectious hematopoietic necrosis virus; experiment: Antiviral activity against IHNV infected in juvenile rainbow trout assessed as increase in IRF3 gene expression in kidney administered intraperitoneally measured after 2 days by RT-qPCR analysis; assay type: functional, organism-based; conditions: route ip, time 2.0 day
[10] = system: Infectious hematopoietic necrosis virus; experiment: Antiviral activity against IHNV infected in EPC cells (unknown origin) assessed as increase in virus-reduced MAVS expression in cells by Western blot analysis; assay type: functional, organism-based
[11] = system: Infectious hematopoietic necrosis virus; experiment: Antiviral activity against IHNV infected in juvenile rainbow trout assessed as decrease in viral G gene expression in spleen administered intraperitoneally measured after 1 to 4 days by RT-qPCR analysis; assay type: functional, organism-based; conditions: route ip, time 1-4 day
[12] = system: Infectious hematopoietic necrosis virus; experiment: Antiviral activity against IHNV infected in EPC cells (unknown origin) assessed as viral titer measured per 0.1 ml incubated for 72 hrs by Reed-Muench method (reference value: 1 10^6.74TCID50); assay type: functional
[13] = system: Infectious hematopoietic necrosis virus; experiment: Antiviral activity against IHNV infected in EPC cells (unknown origin) assessed as reduction in viral load for adsorption at 25 uM measured after 1 hr of incubation at 4 degreeC by RT-qPCR analysis relative to control; assay type: functional; design: scale not given: the % may be the effect or the level left
[14] = system: Infectious hematopoietic necrosis virus; experiment: Antiviral activity against IHNV infected in juvenile rainbow trout assessed as increase in survival rate administered intraperitoneally measured for 14 days relative to control; assay type: functional; conditions: route ip; time 14 day
[15] = system: Infectious hematopoietic necrosis virus; experiment: Antiviral activity against IHNV infected in EPC cells (unknown origin) assessed as uniform shaped nuclei at 25 uM measured after 72 hrs by fluorescence microscopy; assay type: functional, organism-based
[16] = system: Infectious hematopoietic necrosis virus; experiment: Antiviral activity against IHNV infected in EPC cells (unknown origin) assessed as inhibition of viral replication at 25 uM preincubated for 24 hrs followed by viral infection measured after 72 hrs by RT-qPCR analysis; assay type: functional, organism-based; conditions: time 96.0 hrs
[17] = system: Infectious hematopoietic necrosis virus; experiment: Antiviral activity against IHNV infected in EPC cells (unknown origin) assessed as viral titer measured per 0.1 ml incubated for 48 hrs by Reed-Muench method (reference value: 1 10^5.75TCID50); assay type: functional
[18] = system: Infectious hematopoietic necrosis virus; experiment: Antiviral activity against IHNV infected in juvenile rainbow trout assessed as decrease in hemorrhage in kidney administered intraperitoneally measured after 2 days by H and E staining based analysis; assay type: functional, organism-based; conditions: route ip, time 2.0 day
[19] = system: Infectious hematopoietic necrosis virus; experiment: Antiviral activity against IHNV infected in EPC cells (unknown origin) assessed as reduction in cytopathic effect at >4 uM measured after 72 hrs by RT-qPCR analysis; assay type: functional, organism-based
[20] = system: Infectious hematopoietic necrosis virus; experiment: Antiviral activity against IHNV infected in juvenile rainbow trout assessed as decrease in viral G gene expression in kidney of recipient fishes on horizontal transmission between virus-infected donor fishes and non-infected recipient fishes at 25 uM immersed together in compound for 48 hrs by qPCR analysis; assay type: functional, organism-based
[21] = system: Infectious hematopoietic necrosis virus; experiment: Antiviral activity against IHNV infected in EPC cells (unknown origin) assessed as reduction in viral G protein expression at 25 uM pretreated virus with compound for 4 hrs followed by compound-treated virus infection in EPC cells measured after 72 hrs by RT-qPCR analysis relative to control; assay type: functional; design: scale not given: the % may be the effect or the level left
[22] = system: Infectious hematopoietic necrosis virus; experiment: Antiviral activity against IHNV infected in EPC cells (unknown origin) assessed as reduction in viral G protein expression at 25 uM pretreated virus with compound for 1 hr followed by compound-treated virus infection in EPC cells measured after 72 hrs by RT-qPCR analysis relative to control; assay type: functional; design: scale not given: the % may be the effect or the level left
[23] = system: Infectious hematopoietic necrosis virus; experiment: Antiviral activity against IHNV infected in EPC cells (unknown origin) assessed as decrease in virus-induced number of individual mitochondria per cell at 25 uM incubated for 72 hrs by Mito-Tracker dye based analysis; assay type: functional, organism-based
[24] = system: Infectious hematopoietic necrosis virus; experiment: Antiviral activity against IHNV infected in EPC cells (unknown origin) assessed as inhibition of viral replication at 25 uM pre-infected with virus for 6 hrs followed by compound addition measured after 72 hrs by RT-qPCR analysis relative to control; assay type: functional
[25] = system: Infectious hematopoietic necrosis virus; experiment: Antiviral activity against IHNV infected in juvenile rainbow trout assessed as increase in IFN-1 gene expression in kidney administered intraperitoneally measured after 2 days by RT-qPCR analysis; assay type: functional, organism-based; conditions: route ip, time 2.0 day
[26] = system: Infectious hematopoietic necrosis virus; experiment: Antiviral activity against IHNV infected in EPC cells (unknown origin) assessed as decrease in formation of new viral particles at 25 uM measured after 72 hrs by RT-qPCR analysis relative to control; assay type: functional; design: scale not given: the % may be the effect or the level left
[27] = system: Infectious hematopoietic necrosis virus; experiment: Antiviral activity against IHNV infected in juvenile rainbow trout assessed as increase in IRF3 gene expression in spleen administered intraperitoneally measured after 2 days by RT-qPCR analysis; assay type: functional, organism-based; conditions: route ip, time 2.0 day
[28] = system: Infectious hematopoietic necrosis virus; experiment: Antiviral activity against IHNV infected in juvenile rainbow trout assessed as decrease in viral titer in donor fishes on horizontal transmission between virus-infected donor fishes and non-infected recipient fishes at 25 uM immersed together in compound for 48 hrs; assay type: functional, organism-based
[29] = system: Infectious hematopoietic necrosis virus; experiment: Antiviral activity against IHNV infected in juvenile rainbow trout assessed as decrease in hemorrhage in spleen administered intraperitoneally measured after 2 days by H and E staining based analysis; assay type: functional, organism-based; conditions: route ip, time 2.0 day
[30] = system: Infectious hematopoietic necrosis virus; experiment: Antiviral activity against IHNV infected in EPC cells (unknown origin) assessed as reduction in virus-induced disruption of mitochondrial membrane potential at 25 uM incubated for 72 hrs by JC-1 dye based analysis; assay type: functional, organism-based

COc1ccc(C[C@H]2COC(=O)[C@@H]2Cc2ccc(OCCCCCCCCn3cncn3)c(OC)c2)cc1OC
Activity [1]: Active
Activity [2]: Active
Activity [3]: Active
Activity [4]: Active
Activity [5]: Active
inhibition [6]: Active
inhibition at 25 µM [7]: > 90%
Activity [8]: Active
Activity [9]: Active
Activity [10]: Active
Activity [11]: Active
Activity [12]: 1 10^4.73TCID50
Activity [13]: 20%
Survival [14]: 44%
Activity [15]: Active
inhibition [16]: Active
Activity [17]: 1 10^2.45TCID50
Activity [18]: Active
Activity [19]: Active
Activity [20]: Active
Activity [21]: 67%
Activity [22]: 10%
Activity [23]: Active
inhibition at 25 µM [24]: 80%
Activity [25]: Active
Activity [26]: 100%
Activity [27]: Active
Activity [28]: Active
Activity [29]: Active
Activity [30]: Active
